Experimental data reported in patent publication US20220040183A1, “USE OF INHIBITORS OF STRESS GRANULE FORMATION FOR TARGETING THE REGULATION OF IMMUNE RESPONSES” (INSERM (Institut National de la Santé et de la Recherche …, priority 2018, published 2022).

Tested on: PD-1, LAG3 and TIM3 expression by CD3+ T cells
Experiment: Cell-based assay of immune checkpoint expression by T lymphocytes (flow cytometry)
Parameters: species or system human
Details: for PD-1, LAG3 and TIM3 expression by CD3+ T cells: PBMC activated with CD3/CD28 antibodies-coated beads, stimulated for 3 days, FIG. 4; for co-expression profile of PD-1, LAG3 and TIM3 immune checkpoint receptors on activated CD3+ T cells: healthy donors PBMC, FIG. 5, representative of n=6
From the text: PBMC were obtained from human healthy donors (Etablissement Français du Sang, Toulouse, France) after Ficoll-Hypaque (GE Healthcare) density centrifugation and cultured in RPMI 1640 medium (ThermoFisher Scientific) supplemented with 10% fetal bovine serum (ThermoFisher Scientific) and L-glutamine (SIGMA Aldrich).
Cell-Based Assay of Immune Checkpoint Expression by T Lymphocytes.
PBMC isolated from healthy donors were activated with CD3/CD28 antibodies-coated beads (ThermoFisher Scientific). When drugs were used (A-92 (1 μM) or GSK2606414 (GSK, 10 μM)), they were added simultaneously to the stimulation. After 3 days of in vitro culture, cells were processed for qRT-PCR, immunoblotting or flow cytometry analysis.

Structure (SMILES): c1nn(C2CCOCC2)cc1Nc1ncc2nnn(-c3ccc4cn[nH]c4c3)c2n1 [A-92, 3-(1H-indazol-6-yl)-N-[1-(oxan-4-yl)pyrazol-4-yl]triazolo[4,5-d]pyrimidin-5-amine]
- PD-1, LAG3 and TIM3 expression by CD3+ T cells (A-92 1 μM): impair immune checkpoints expression
- co-expression profile of PD-1, LAG3 and TIM3 immune checkpoint receptors on activated CD3+ T cells (A-92 1 μM): impair immune checkpoints expression simultaneously

Structure (SMILES): Cn1cc(-c2ccc3c(c2)CCN3C(=O)Cc2cccc(C(F)(F)F)c2)c2c(N)ncnc21 [GSK2606414, 1-[5-(4-amino-7-methylpyrrolo[2,3-d]pyrimidin-5-yl)-2,3-dihydroindol-1-yl]-2-[3-(trifluoromethyl)phenyl]ethanone]
- PD-1, LAG3 and TIM3 expression by CD3+ T cells (GSK2606414 10 μM): impair immune checkpoints expression
- co-expression profile of PD-1, LAG3 and TIM3 immune checkpoint receptors on activated CD3+ T cells (GSK2606414 10 μM): impair immune checkpoints expression simultaneously
